According to paper PMC5303009, “Benzenesulphonamide inhibitors of the cytolytic protein perforin” (Bioorganic & Medicinal Chemistry Letters, 2017):
Values joined by “and” are separate entries in the source; they are usually repeats but may differ in a detail not shown here. Equal entries are not always repeated. Where two headings read alike, the source gives them in different places. Values belong to the compound of their own block, whether it stands above or below them.

Legend:
recombinant perforin [1] = target: T1, recombinant perforin (Mus musculus, UniProt P10820); test: Inhibition of perforin-mediated lysis of Jurkat cells (51Cr release); format: cell-based
T1 sequence (P10820 21-554): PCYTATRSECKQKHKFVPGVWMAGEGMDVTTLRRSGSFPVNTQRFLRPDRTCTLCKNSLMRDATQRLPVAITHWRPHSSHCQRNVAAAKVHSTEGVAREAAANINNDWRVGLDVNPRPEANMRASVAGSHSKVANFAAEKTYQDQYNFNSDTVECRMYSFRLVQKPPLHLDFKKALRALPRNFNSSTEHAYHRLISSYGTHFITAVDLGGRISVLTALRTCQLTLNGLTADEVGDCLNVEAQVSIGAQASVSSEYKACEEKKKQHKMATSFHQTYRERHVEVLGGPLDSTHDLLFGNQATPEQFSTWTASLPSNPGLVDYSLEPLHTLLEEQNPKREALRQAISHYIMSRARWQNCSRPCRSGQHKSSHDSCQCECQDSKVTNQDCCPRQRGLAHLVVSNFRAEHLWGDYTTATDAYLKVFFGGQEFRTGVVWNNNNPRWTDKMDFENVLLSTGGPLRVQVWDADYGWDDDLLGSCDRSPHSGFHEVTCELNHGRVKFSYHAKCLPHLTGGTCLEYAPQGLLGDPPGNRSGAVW
Experimental: The ability of the compounds to inhibit the lysis of nucleated (Jurkat T lymphoma) cells in the presence of 0.1% BSA, as measured by release of ^51Cr was measured. Jurkat target cells were labelled by incubation in medium with 100 µCi ^51Cr for one hour. The cells were then washed three times to remove unincorporated isotope and re-suspended at 1 x 10^5 cells per mL in RPMI buffer supplemented with 0.1% BSA. […] The supernatant was collected and assessed for its radioactive content on a gamma counter (Wallac Wizard 1470 automatic gamma counter). Each data point was performed in triplicate and an IC50 was calculated from the range of concentrations described to above.

[2] = Stability in solution (water); format: physicochemical; conditions: sodium salt, 24 h at 20 °C in water
KHYG-1 NK cells = test: Toxicity to KHYG-1 NK cells (Trypan blue exclusion); format: cell-based, human; conditions: after 24 h, ± SEM, 20 µM
Experimental: (§1) The use of NK cells to secrete perforin rather than employing isolated recombinant protein is a more stringent test of a compound’s ability to block lytic activity, requiring the inhibitor to access the synaptic cleft between effector (NK) and target cells where perforin is released.
(§2) The toxicity assay was carried out in exactly the same manner as the killing assay above, but instead of adding the labelled K562 target cells, 100 μL of RPMI 0.1% BSA was added. Cells were incubated for 4 h at 37 °C and then washed ×3 in RPMI + 0.1% BSA. […] Trypan blue was added to each well. Viable (clear) cells and total (clear + blue) cells were counted, and the percentage of viable cells was calculated compared to DMSO treated cell control (% viability).

[3] = as above; format: cell-based, human; conditions: human, KHYG-1 NK cells, after 24 h, ± SEM
Experimental: as §1, §2

Microsome stability, rat = format: in vitro ADME; conditions: sodium salt, rat microsomes, 30 min
[4] = Microsome stability, human; format: in vitro ADME; conditions: sodium salt, human microsomes, 30 min
[5] = Microsome stability, mouse; format: in vitro ADME; conditions: sodium salt, mouse microsomes, 30 min
[6] = Plasma protein binding by equilibrium dialysis; format: in vitro ADME; conditions: mouse plasma, 6 h incubation at 37 °C
[7] = Solubility of the sodium salt in water; format: physicochemical
recombinant perforin [8] = target: T1, recombinant perforin; conditions: diarylthiophene series; cited from earlier work
[9] = target: T2, perforin delivered by KHYG-1 NK cells (Homo sapiens, UniProt P14222); test: KHYG-1 cytotoxicity assay: inhibition of NK cell lysis of 51Cr-labelled K562 target cells; format: cell-based; conditions: lysis of 51Cr-labelled K562 cells co-incubated with KHYG-1 NK cells, vs untreated control, ± SEM
T2 construct: The use of NK cells to secrete perforin rather than employing isolated recombinant protein is a more stringent test; endogenous in cells; host or cells: KHYG-1 NK cells (effector), K562 target cells
T2 sequence (P14222 22-555): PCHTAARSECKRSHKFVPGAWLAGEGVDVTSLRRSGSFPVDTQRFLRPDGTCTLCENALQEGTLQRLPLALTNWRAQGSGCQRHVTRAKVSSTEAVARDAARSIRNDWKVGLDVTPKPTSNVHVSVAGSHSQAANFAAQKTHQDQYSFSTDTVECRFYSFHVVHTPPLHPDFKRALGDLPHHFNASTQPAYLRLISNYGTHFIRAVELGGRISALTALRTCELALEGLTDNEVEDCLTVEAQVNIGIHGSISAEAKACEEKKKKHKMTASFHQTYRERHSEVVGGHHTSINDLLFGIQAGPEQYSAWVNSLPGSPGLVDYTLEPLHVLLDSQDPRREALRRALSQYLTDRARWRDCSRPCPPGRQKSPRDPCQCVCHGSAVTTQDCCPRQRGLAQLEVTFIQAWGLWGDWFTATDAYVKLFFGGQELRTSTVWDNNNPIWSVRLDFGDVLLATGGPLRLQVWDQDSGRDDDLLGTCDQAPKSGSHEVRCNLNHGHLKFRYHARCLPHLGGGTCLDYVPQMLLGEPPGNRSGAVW
Experimental: as §1
Test compounds are then added (50 µL) at a final concentration of 20µM and incubated at RT for 20 min. ^51Cr-labelled K562 leukemia target cells (50 µL, 2 x 10^5 cells/mL) are then added to each well and incubated at 37 °C for 4 hours. ^51Cr release is assayed using a Skatron Harvesting Press and radioactivity estimated on a Wallac Wizard 1470 Automatic Gamma counter (Turku, Finland). The inhibitory function is then determined by identifying the number of untreated or inhibitor treated effector cells required to kill the same number of targets. The percent inhibition is calculated by the formula: […]
Where x is the point the inhibitor intersects with the DMSO on a curve.

[10] = target: Class I PI3-kinase enzyme p110α/p85 (Homo sapiens, UniProt P42336); test: PI3K-α counterscreening; format: biochemical; conditions: recombinant PI3-kinase, phosphatidylinositol substrate, [33P]-ATP; read-out: PI3Kα IC50
Chain of Class I PI3-kinase enzyme p110α/p85 (P42336 whole entry): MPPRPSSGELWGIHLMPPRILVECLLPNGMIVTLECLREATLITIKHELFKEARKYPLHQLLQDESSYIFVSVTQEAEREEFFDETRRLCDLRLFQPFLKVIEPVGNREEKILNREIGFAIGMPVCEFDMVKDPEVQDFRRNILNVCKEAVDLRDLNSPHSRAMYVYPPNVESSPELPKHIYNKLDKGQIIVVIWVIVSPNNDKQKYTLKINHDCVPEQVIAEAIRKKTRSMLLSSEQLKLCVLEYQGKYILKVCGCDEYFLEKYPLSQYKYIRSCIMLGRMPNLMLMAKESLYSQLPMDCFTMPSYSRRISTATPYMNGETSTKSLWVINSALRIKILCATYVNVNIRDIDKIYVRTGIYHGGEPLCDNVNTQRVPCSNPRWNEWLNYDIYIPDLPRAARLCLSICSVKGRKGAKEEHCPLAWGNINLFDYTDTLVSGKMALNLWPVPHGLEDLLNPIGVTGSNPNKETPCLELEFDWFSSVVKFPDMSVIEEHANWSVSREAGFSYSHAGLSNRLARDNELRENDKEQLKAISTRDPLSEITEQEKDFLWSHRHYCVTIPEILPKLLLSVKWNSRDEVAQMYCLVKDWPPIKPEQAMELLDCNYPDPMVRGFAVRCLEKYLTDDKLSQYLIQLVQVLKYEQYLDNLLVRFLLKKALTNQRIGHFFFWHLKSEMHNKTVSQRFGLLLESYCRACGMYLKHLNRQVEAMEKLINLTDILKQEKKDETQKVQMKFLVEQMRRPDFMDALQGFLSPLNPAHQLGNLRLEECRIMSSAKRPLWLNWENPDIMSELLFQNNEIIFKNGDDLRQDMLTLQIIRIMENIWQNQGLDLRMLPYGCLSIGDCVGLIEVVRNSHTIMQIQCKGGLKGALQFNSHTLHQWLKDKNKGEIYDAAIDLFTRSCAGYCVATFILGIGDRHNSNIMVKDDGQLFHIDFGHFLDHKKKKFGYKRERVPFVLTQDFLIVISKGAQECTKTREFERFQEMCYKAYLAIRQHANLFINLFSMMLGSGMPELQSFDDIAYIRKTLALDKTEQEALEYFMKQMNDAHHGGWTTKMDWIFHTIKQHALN
Chain of Class I PI3-kinase enzyme p110α/p85 (P27986 whole entry partner): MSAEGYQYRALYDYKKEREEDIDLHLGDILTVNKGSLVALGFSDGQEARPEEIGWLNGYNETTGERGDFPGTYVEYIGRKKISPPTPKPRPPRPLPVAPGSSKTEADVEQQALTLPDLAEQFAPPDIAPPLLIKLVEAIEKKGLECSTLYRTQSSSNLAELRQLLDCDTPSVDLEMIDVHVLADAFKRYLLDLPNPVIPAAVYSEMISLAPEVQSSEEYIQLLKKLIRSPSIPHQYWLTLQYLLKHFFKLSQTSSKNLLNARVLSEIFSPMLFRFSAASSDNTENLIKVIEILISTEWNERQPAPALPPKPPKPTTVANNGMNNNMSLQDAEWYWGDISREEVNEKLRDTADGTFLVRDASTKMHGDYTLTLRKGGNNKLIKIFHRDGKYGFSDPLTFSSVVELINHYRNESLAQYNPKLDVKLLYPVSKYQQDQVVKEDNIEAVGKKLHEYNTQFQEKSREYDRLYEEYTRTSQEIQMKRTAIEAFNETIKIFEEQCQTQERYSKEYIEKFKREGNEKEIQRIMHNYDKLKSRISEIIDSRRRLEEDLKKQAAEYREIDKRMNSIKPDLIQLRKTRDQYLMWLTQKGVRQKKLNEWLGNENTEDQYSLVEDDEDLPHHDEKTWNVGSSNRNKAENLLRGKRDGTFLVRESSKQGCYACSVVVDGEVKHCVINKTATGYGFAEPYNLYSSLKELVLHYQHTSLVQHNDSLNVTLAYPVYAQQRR
Experimental: Given that the pyridine-3-yl-2,4-difluorobenzenesulphonamide subunit is derived from a structure that was optimised to target PI3Kα, it was also considered prudent to counter-screen for off-target effects related to this pathway.
Compounds were evaluated for their ability to inhibit the Class I PI3-kinase enzyme p110α/p85.

recombinant perforin [11] = target: T1, recombinant perforin; test: Inhibition of perforin-mediated lysis of Jurkat cells (51Cr release); format: cell-based; conditions: read-out: Inhibitory activity in Jurkat assay at 20 μM with serum
[12] = read-out: Inhibition of Jurkat cell lysis IC50; recombinant perforin, 0.1% BSA, 51Cr release, 4 h; average of at least two determinations
[13] = sodium salt in water at room temperature
[14] = recombinant perforin, 0.1% BSA, 51Cr release, 4 h; average of at least two determinations; read-out: Inhibition of Jurkat cell lysis IC50

SMILES: CN1Cc2ccc(-c3ccc(-c4cncc(NS(=O)(=O)c5ccc(F)cc5F)c4)s3)cc2C1=O [Compound 8]
IC50 (recombinant perforin [1]; [12]): 10.4 µM

SMILES: O=C1Cc2cc(-c3ccc(-c4cncc(NS(=O)(=O)c5ccc(F)cc5F)c4)s3)ccc2N1 [Compound 14]
Stability in solution (% parent remaining) [2]: 88.7%
Fold superior to N-methyl partner 15 (Jurkat IC50) (recombinant perforin [1]; compared with compound 15): ~2 fold
IC50 (recombinant perforin [1]; [12]): 5.18 µM
KHYG-1 viability (% at 20 μM) (KHYG-1 NK cells): 96 ± 1.0%
viability at 24 h, 20 µM [3]: > 90%
Microsome stability (% parent remaining), Rat (Microsome stability, rat): 79%
Microsome stability (% parent remaining), Human [4]: 71%
Microsome stability (% parent remaining), Mouse [5]: 84%
fraction unbound at 6 h [6]: 0.0009
solubility ([7]; sodium salt in water): 390 µg/mL
solubility [7, 13]: 392 µg/mL

IC50 (recombinant perforin [1]; [14]): > 20 µM
SMILES: O=C1NCCc2ccc(-c3ccc(-c4cncc(NS(=O)(=O)c5ccc(F)cc5F)c4)s3)cc21 [Compound 11]

SMILES: NC(=O)c1ccc(-c2ccc(-c3ccc4c(c3)COC4=O)s2)cn1 [Compound 3]
Inhibition of isolated perforin (recombinant perforin [8]): sub-micromolar

IC50 (recombinant perforin [1]; [14]): > 20 µM
SMILES: CN1CCc2cc(-c3ccc(-c4cncc(NS(=O)(=O)c5ccc(F)cc5F)c4)s3)ccc2C1=O [Compound 10]

Stability in solution (% parent remaining) [2]: 82% and 81.5%
Microsome stability (% parent remaining), Human [4]: 58%
fraction unbound at 6 h [6]: 0.0011
solubility ([7]; sodium salt in water): 1100 µg/mL
solubility [7, 13]: 1080 µg/mL
IC50 [10]: > 6.25 µM
SMILES: CN1Cc2cc(-c3ccc(-c4cncc(NS(=O)(=O)c5ccc(F)cc5F)c4)s3)ccc2C1=O [Compound 5]
inhibition at 20 µM [9]: 88 ± 3.8%

IC50 (recombinant perforin [1]; [14]): > 20 µM
SMILES: CN1Cc2cc(-c3nc(-c4cncc(NS(=O)(=O)c5ccc(F)cc5F)c4)cs3)ccc2C1=O [Compound 21]

IC50 (recombinant perforin [1]; [14]): 15 µM
SMILES: CN1Cc2cc(-c3ccc(-c4cncc(NS(=O)(=O)c5ccc(F)cc5F)c4)o3)ccc2C1=O [Compound 19]

SMILES: Cn1ccc2cc(-c3ccc(-c4cncc(NS(=O)(=O)c5ccc(F)cc5F)c4)s3)ccc21 [Compound 17]
IC50 (recombinant perforin [1]; [12]): 7.58 µM

IC50 (recombinant perforin [1]; [14]): > 20 µM
SMILES: O=C1NCCc2cc(-c3ccc(-c4cncc(NS(=O)(=O)c5ccc(F)cc5F)c4)s3)ccc21 [Compound 9]

SMILES: CN1Cc2cc(-c3ncc(-c4cncc(NS(=O)(=O)c5ccc(F)cc5F)c4)s3)ccc2C1=O [Compound 20]
IC50 (recombinant perforin [1]; [12]): 17.1 µM

SMILES: O=C1NCc2ccc(-c3ccc(-c4cncc(NS(=O)(=O)c5ccc(F)cc5F)c4)s3)cc21 [Compound 7]
Stability in solution (% parent remaining) [2]: 97% and 97.3%
IC50 (recombinant perforin [1]; [12]): 4.15 µM
KHYG-1 viability (% at 20 μM) (KHYG-1 NK cells): 96 ± 6.0%
viability at 24 h, 20 µM [3]: > 90%
Microsome stability (% parent remaining), Rat (Microsome stability, rat): 82%
Microsome stability (% parent remaining), Human [4]: 83%
Microsome stability (% parent remaining), Mouse [5]: 42%
fraction unbound at 6 h [6]: 0.0003
solubility ([7]; sodium salt in water): 12900 µg/mL
solubility [7, 13]: 12900 µg/mL

SMILES: CC(=O)c1cn(C)c2ccc(-c3ccc(-c4cncc(NS(=O)(=O)c5ccc(F)cc5F)c4)s3)cc12 [Compound 18]
IC50 (recombinant perforin [1]; [12]): 11.2 µM

SMILES: CN1Cc2cc(-c3ccc(-c4cncc(NS(=O)(=O)c5ccc(F)cc5F)c4)nc3)ccc2C1=O [Compound 22]
IC50 (recombinant perforin [1]; [12]): 8.17 µM

SMILES: O=S(=O)(Nc1cncc(-c2ccc(-c3ccc4[nH]ccc4c3)s2)c1)c1ccc(F)cc1F [Compound 16]
inhibition at 20 µM (recombinant perforin [1]; Jurkat, read-out: Inhibitory activity in Jurkat assay at 20 μM): 88%
inhibition at 20 µM (recombinant perforin [11]): 32%

Stability in solution (% parent remaining) [2]: 82.0%
Microsome stability (% parent remaining), Rat (Microsome stability, rat): 88%
Microsome stability (% parent remaining), Human [4]: 85%
Microsome stability (% parent remaining), Mouse [5]: 92%
fraction unbound at 6 h [6]: 0.003
solubility ([7]; sodium salt in water): 10600 µg/mL
solubility [7, 13]: 10600 µg/mL
SMILES: O=C1NCc2cc(-c3ccc(-c4cncc(NS(=O)(=O)c5ccc(F)cc5F)c4)s3)ccc21 [Compound 6]
KHYG-1 viability (% at 20 μM) (KHYG-1 NK cells): 94 ± 4.0%
viability at 24 h, 20 µM [3]: > 90%

SMILES: CN1C(=O)Cc2cc(-c3ccc(-c4cncc(NS(=O)(=O)c5ccc(F)cc5F)c4)s3)ccc21 [Compound 15]
IC50 (recombinant perforin [1]; [12]): 10.3 µM

Inhibition of Jurkat cell lysis IC50 (recombinant perforin [1]; recombinant perforin, 0.1% BSA, 51Cr release, 4 h; average of at least two determinations): poor activity
IC50 (recombinant perforin [1]; [14]): > 20 µM
SMILES: CC1c2cc(-c3ccc(-c4cncc(NS(=O)(=O)c5ccc(F)cc5F)c4)s3)ccc2C(=O)N1C (stereo not drawn) [Compound 13]

SMILES: CS(=O)(=O)Nc1ccc(-c2ccc(-c3ccc4c(c3)COC4=O)s2)cc1 [Compound 2]
Inhibition of isolated perforin (recombinant perforin [8]): sub-micromolar
